Assay results from patent US10149852B2, “Use of sodium channel blockers for the treatment of neuropathic pain developing as a consequence of chemotherapy” (priority 2006, dated 2018).
“And” between values parts separate entries of the source, which are not always exact repeats. Equal values may be shown once. “Also recorded” adds a separate entry of the source.

Legend:
[1] = tested on: paclitaxel-induced cold allodynia
[2] = tested on: paclitaxel induced paw hyperalgesia
[3] = tested on: paclitaxel-induced thermal hyperalgesia
[4] = tested on: paclitaxel-induced mechanical allodynia
[5] = tested on: paclitaxel induced paw allodynia
[6] = tested on: paclitaxel induced orofacial allodynia
[7] = in vivo; cited from earlier work
[8] = tested on: Chemotherapy Induced Neuropathic Pain (CINP); set-up: species or system Human Subjects; details: in vivo
[9] = set-up: species or system Human Subjects; details: in vivo
[10] = tested on: paclitaxel-induced painful peripheral neuropathy; set-up: species or system CD-1 mice; details: mouse, in vivo, sc
[11] = paclitaxel 2 mg/kg i.p. once daily 5 days
[12] = paclitaxel 1 mg/kg i.p. days 1, 3, 5, 7, rats

Molecule: CC(=O)O[C@H]1C(=O)[C@@]2(C)[C@H]([C@H](OC(=O)c3ccccc3)[C@]3(O)C[C@H](OC(=O)[C@H](O)[C@@H](NC(=O)c4ccccc4)c4ccccc4)C(C)=C1C3(C)C)[C@]1(OC(C)=O)CO[C@@H]1C[C@@H]2O [paclitaxel, Paclitaxel, reference compound]
- animals with increased time licking/biting (paclitaxel-responder animals) [1, 11]: 67%
- time of maximal cold allodynia after the first injection [1, 11]: 10 to 14 days
- thermal latency vs vehicle-treated group [2, 12]: significantly reduced
- time of maximal thermal hyperalgesia after the first injection [3, 11]: 7 days
- paw withdrawal latency in the plantar test vs pre-treatment day ([3]; paclitaxel 2 mg/kg i.p. once daily 5 days, all post-treatment days): significantly reduced
- animals that did not develop thermal hyperalgesia on day 7 ([3]; paclitaxel-treated mice): Around 9%
- induction of mechanical allodynia (threshold force, Von Frey test) ([4]; paclitaxel 2 mg/kg i.p. during 5 days, day 10): induced mechanical allodynia
- animals showing a reduction of the mechanical threshold ([4]; paclitaxel-treated mice): 96%
- mechanical threshold (paw) vs vehicle-treated group [5, 12]: significantly reduced
- mechanical threshold (orofacial) vs vehicle-treated group [6, 12]: significantly reduced

Molecule: Octahydro-12-(Hydroxymethyl)-2-imino-5,9,7,10a-dimethano-10aH-[1,3]dioxocino[6,5-d]pyrimidine-4,7,10,11,12-pentol [TTX]
- effect on expression of paclitaxel-induced cold allodynia ([1]; mouse, in vivo): inhibited the expression
- days with statistically significant difference vs paclitaxel+saline, duration of licking/biting ([1]; mouse, in vivo, sc): days 10 and 14
- days with statistically significant difference vs paclitaxel+saline, frequency of licking/biting ([1]; mouse, in vivo, sc): days 7, 10 and 14
- effect on development of paclitaxel-induced cold allodynia (two variables) ([1]; mouse, in vivo, sc): did not significantly affect
- effect significantly different from saline, frequency of licking/biting ([1]; mouse, in vivo, sc): only in the animals treated with TTX 6 μg/kg
- time after injection with effect significantly different from saline, duration of licking/biting ([1]; mouse, in vivo, sc): 1 h
- safety profile of the doses [7]: acceptable safety profile
- effect of a single dose on paw hyperalgesia ([2]; rat, in vivo, sc): did not significantly reduce
- prevention of development of hyperalgesia in the paw ([2]; rat, in vivo, sc): able to prevent the development
- Responders, 30% reduction in average NPRS score from baseline to any 10 consecutive days: No, number of subjects [8]: 17 (68.0%) and 14 (58.3%) and 15 (60.0%) and 11 (42.3%)
- Responders, 30% reduction in average NPRS score from baseline to any 10 consecutive days: No, percent [8]: 17 (68.0%) and 14 (58.3%) and 15 (60.0%) and 11 (42.3%)
- Responders, 30% reduction in average NPRS score from baseline to any week: No, number of subjects [8]: 16 (64.0%) and 13 (54.2%) and 15 (60.0%) and 11 (42.3%)
- Responders, 30% reduction in average NPRS score from baseline to any week: No, percent [8]: 16 (64.0%) and 13 (54.2%) and 15 (60.0%) and 11 (42.3%)
- Responders, 30% reduction in average NPRS score from baseline to any week: Yes, number of subjects [8]: 9 (36.0%) and 11 (45.8%) and 10 (40.0%) and 15 (57.7%)
- Nervous system disorders, number of subjects [9]: 13 and 16 and 17 and 20
- Number of Subjects with at least 1 AE [9]: 21 and 22 and 20 and 24
- Paresthesia, number of subjects [9]: 5 and 7
- grade 4 AEs [9]: no grade 4 AEs
- number of grade 3 AEs [9]: four and seven
- number of patients with serious adverse effects (SAEs) [9]: Three
- number of subjects with grade 3 AE [9]: Four
- relation of the SAEs to TTX [9]: two unrelated and one unlikely related
- severity of most AEs [9]: grade 1 or 2; also recorded: mild or moderate
- severity of nervous system AEs [9]: grade 1 or 2 save for one event of grade 3 paresthesia
- Hypesthesia oral, number of subjects ([9]; po): 5 and 7 and 6 and 10
- Oral paresthesia (most common AE), number of patients of 125 ([9]; po): 37
- Oral paresthesia (most common AE), percent ([9]; po): 29.6%
- dose relation of Oral Paresthesia ([9]; po): increasing trend in relation to increasing dose
- oral hypesthesia, number of patients of 125 ([9]; po): 31
- oral hypesthesia, percent ([9]; po): 24.8%
- analgesic effects in the model of neuropathic pain [10]: clear analgesic effects
- effect of a single dose on allodynia in the sciatic territory ([5]; rat, in vivo, sc): partial but significant decrease
- prevention of development of allodynia in the paw ([5]; rat, in vivo, sc): able to prevent the development
- effect of a single dose on allodynia in the trigeminal territory ([6]; rat, in vivo, sc): partial but significant decrease
- prevention of development of allodynia in the orofacial region ([6]; rat, in vivo, sc): able to prevent the development
